Test results as given in patent US20240009190A1, “COMBINATION CANCER THERAPY USING CHK INHIBITOR” (SHANGHAI HUAYU BIOTECHNOLOGY CO., LTD., priority 2020, published 2024).

How the values were obtained:
[1] = Mice body weight in CT-26 WT tumor model (Example 2); assay type: in vivo, BALB/c female mice; details: for Average body weight: compounds 15 mg/kg tail vein once per day, anti-m-PD-1 10 mg/kg IP once every five days; for average mice weight, tumor weight deducted: compounds 15 mg/kg, anti-m-PD-1 10 mg/kg
Description: (§1) Mice were observed every day for their physical conditions and activities, and mice body weight and tumor volume were measured every Tuesday, Thursday and Sunday. The tumor volume (V) was calculated as (length×width^2)/2.
(§2) At Day 23, mice were subject to euthanasia, from which tumors were collected, weighed and photographed. Mice body weights, tumor sizes and tumor weights were analyzed using the t-test in SPSS, and group differences were deemed statistically significant when the p-value was 0.05 or less. Tumor weight based tumor growth inhibition (TGI) and Zheng-Jun Jin's Q value were calculated.

[2] = system: CT-26 WT cells; experiment: CT-26 WT subcutaneous tumor model, CHK inhibitors at lower dose with anti-m-PD-1 antibody (Example 2); assay type: in vivo, BALB/c female mice; details: for Average tumor size: compounds 15 mg/kg tail vein once per day, anti-m-PD-1 10 mg/kg IP once every five days; for Tumor weight based TGI: compounds 15 mg/kg, anti-m-PD-1 10 mg/kg; for Tumor weight, Average: group average of 8 mice; for Tumor weight, Mouse no. 1 / Tumor weight, Mouse no. 2 / Tumor weight, Mouse no. 3 / Tumor weight, Mouse no. 4 / Tumor weight, Mouse no. 5 / Tumor weight, Mouse no. 6 / Tumor weight, Mouse no. 7 / Tumor weight, Mouse no. 8: individual mouse
Description: The anti-tumor effect of Compound 6 at a lower dose in combination with an anti-PD-1 antibody was studied in this Example. Further, three compounds obtained by structurally modifying Compound 6, i.e., Compound 6-1, Compound 6-2 and Compound 6-3, were tested alone or in combination with an anti-PD-1 antibody for their anti-tumor effects.
At Day 0, 105 BALB/c female mice, 4-5 weeks old, were subcutaneously injected with about 200.0 μL of the CT-26 WT cell medium containing about 5×10^5 cells, respectively.
At Day 5, 80 tumor-bearing mice were randomly assigned to ten groups according to their body weights, 8 mice per group. The remaining mice were subject to euthanasia.
The ten groups of animals were administered with an anti-m-PD-1 antibody (BE0146, BioXcell) in PBS (21-040-CVR, BioXcell) at 1.0 mg/mL, Compound 6 in saline at 1.5 mg/mL, Compound 6-1 in saline at 1.5 mg/mL, Compound 6-2 in saline at 1.5 mg/mL, Compound 6-3 in saline at 1.5 mg/mL, the anti-m-PD-1 antibody+Compound 6, the anti-m-PD-1 antibody+Compound 6-1, the anti-m-PD-1 antibody+Compound 6-2, the anti-m-PD-1 antibody+Compound 6-3, and the control vehicle (saline), respectively, at doses shown in Table 3 below.
as §1, §2

[3] = system: MC38 cells; experiment: MC38 tumor model in transgenic mice, Compound 6, anti-PD-1 antibody and gemcitabine (Example 5); assay type: in vivo, C57BL/6-Pdcd1^em(hPDCD1) Cd274^em1(hPD-L1)/Smoc mice; details: Day 23; Compound 6 15 mg/kg IP QD × 14; GEM 20 mg/kg IV QW × 2; anti-PD-1 10 mg/kg IP Q5D × 3
Description: MC38 cells were maintained at 37° C. in 5% CO2 in RPMI 1640 medium (10-040-CV, Corning cellgro) supplemented with 10% FBS (10270-106, GIBCO) and used before the 10th subculture.
Female C57BL/6-Pdcd1^em(hPDCD1) Cd274^em1(hPD-L1)/Smoc mice (Shanghai Model Organisms), 20-25 g, were subcutaneously injected with about 5×10^5 MC38 cells, respectively.
When tumors grew to 50-70 mm^3, these mice were randomly assigned to 8 groups, 8 mice per group, this day was at Day 9. From Day 9, the animals were administered with gemcitabine (GEM) in saline at 20 mg/mL, an anti-PD-1 antibody (Toripalimab, Shanghai Junshi Biosciences Co., Ltd. China) in saline at 40 mg/mL, Compound 6 in saline at 8 mg/mL, Compound 6+gemcitabine, gemcitabine+anti-PD-1, Compound 6+anti-PD-1, Compound 6+gemcitabine+anti-PD-1, and the control vehicle (5% GS), respectively, according to the dosing regimen shown in Table 11 below.
Mice were observed every day for their physical conditions and activities, and mice body weight and tumor volume were measured every other day. The tumor volume (V) was calculated as (length×width^2)/2.
Mice body weights, and tumor sizes were analyzed using the t-test in SPSS, and group differences were deemed statistically significant when the p-value was 0.05 or less.
Tumor growth inhibition (TGI) was calculated by the following formula. Tumor growth inhibition=(average tumor size in vehicle group-average tumor size in administration group)/average tumor size in vehicle group×100%
Zheng-Jun Jin's Q value was calculated as described above.

Work on `NC(=O)c1nnc(OC2CCCNC2)c2cc(-c3cccc(F)c3)sc12` (stereo not shown) [Compound 6-1, 2-(3-fluorophenyl)-4-(3-piperidinyloxy)-thieno[2,3-d]pyridazine-7-carboxylic acid amide] yielded an Average body weight ([1]; Day 9) of 16.29 g, an Average body weight ([1]; Day 10) of 16.75 g and an Average body weight ([1]; Day 12) of 16.89 g. It also gave an Average body weight ([1]; Day 14) of 17.18 g, an Average body weight ([1]; Day 16) of 17.79 g and an Average body weight ([1]; Day 18) of 17.99 g. It also gave an Average body weight ([1]; Day 20) of 18.32 g, an Average body weight ([1]; Day 22) of 18.57 g and an Average body weight ([1]; Day 23) of 19.31 g. The “average mice weight, tumor weight deducted” value (“average mice weight” for short) ([1]; Day 23) was 17.77 g, the Average tumor size ([2]; Day 9) was 171.59 mm^3 and the Average tumor size ([2]; Day 10) was 257.64 mm^3. It also gave an Average tumor size ([2]; Day 12) of 367.95 mm^3, an Average tumor size ([2]; Day 14) of 550.08 mm^3 and an Average tumor size ([2]; Day 16) of 677.06 mm^3. The Average tumor size ([2]; Day 18) was 780.61 mm^3, the Average tumor size ([2]; Day 20) was 972.02 mm^3 and the Average tumor size ([2]; Day 22) was 1062.24 mm^3. For the same molecule, the Average tumor size ([2]; Day 23) was 1179.61 mm^3, the “Tumor weight based TGI” value ([2]; Day 23) was 45.63% and the “Tumor weight, Average” value ([2]; Day 23) was 1.54 g. The “Tumor weight, Mouse no. 1” value ([2]; Day 23) was 0.87 g, the “Tumor weight, Mouse no. 2” value ([2]; Day 23) was 1.19 g and the “Tumor weight, Mouse no. 3” value ([2]; Day 23) was 2.32 g. For the same molecule, the “Tumor weight, Mouse no. 4” value ([2]; Day 23) was 2.87 g, the “Tumor weight, Mouse no. 5” value ([2]; Day 23) was 1.58 g and the “Tumor weight, Mouse no. 6” value ([2]; Day 23) was 1.68 g. For the same molecule, the “Tumor weight, Mouse no. 7” value ([2]; Day 23) was 1.31 g and the “Tumor weight, Mouse no. 8” value ([2]; Day 23) was 0.49 g.
In the case of `NC(=O)c1nnc(SC2CCCNC2)c2cc(-c3cccc(F)c3)sc12` (stereo not shown) [Compound 6-2, 2-(3-fluorophenyl)-4-(3-piperidinylthio)-thieno[2,3-d]pyridazine-7-carboxylic acid amide], the Average body weight ([1]; Day 9) is reported as 16.45 g, the Average body weight ([1]; Day 10) is reported as 16.69 g and the Average body weight ([1]; Day 12) is reported as 16.78 g. The Average body weight ([1]; Day 14) was 17.22 g, the Average body weight ([1]; Day 16) was 17.62 g and the Average body weight ([1]; Day 18) was 18.05 g. For the same molecule, the Average body weight ([1]; Day 20) was 18.67 g, the Average body weight ([1]; Day 22) was 19.14 g and the Average body weight ([1]; Day 23) was 19.63 g. For the same molecule, the “average mice weight” value ([1]; Day 23) was 18.04 g, the Average tumor size ([2]; Day 9) was 196.37 mm^3 and the Average tumor size ([2]; Day 10) was 278.84 mm^3. For the same molecule, the Average tumor size ([2]; Day 12) was 391.83 mm^3, the Average tumor size ([2]; Day 14) was 570.64 mm^3 and the Average tumor size ([2]; Day 16) was 698.18 mm^3. The Average tumor size ([2]; Day 18) was 805.13 mm^3, the Average tumor size ([2]; Day 20) was 974.34 mm^3 and the Average tumor size ([2]; Day 22) was 1196.22 mm^3. The Average tumor size ([2]; Day 23) was 1334.63 mm^3, the “Tumor weight based TGI” value ([2]; Day 23) was 43.82% and the “Tumor weight, Average” value ([2]; Day 23) was 1.59 g. The “Tumor weight, Mouse no. 1” value ([2]; Day 23) was 0.84 g, the “Tumor weight, Mouse no. 2” value ([2]; Day 23) was 1.58 g and the “Tumor weight, Mouse no. 3” value ([2]; Day 23) was 0.84 g. For the same molecule, the “Tumor weight, Mouse no. 4” value ([2]; Day 23) was 2.56 g, the “Tumor weight, Mouse no. 5” value ([2]; Day 23) was 1.78 g and the “Tumor weight, Mouse no. 6” value ([2]; Day 23) was 2.12 g. For the same molecule, the “Tumor weight, Mouse no. 7” value ([2]; Day 23) was 0.89 g and the “Tumor weight, Mouse no. 8” value ([2]; Day 23) was 2.11 g.
In the case of `NC(=O)c1nnc(CC2CCCNC2)c2cc(-c3cc(Cl)cc(Cl)c3)sc12` (stereo not shown) [Compound 6-3, 2-(3,5-dichlorophenyl)-4-(3-piperidinemethyl)-thieno[2,3-d]pyridazinyl-7-formamide], the Average body weight ([1]; Day 9) is reported as 15.99 g, the Average body weight ([1]; Day 10) is reported as 16.25 g and the Average body weight ([1]; Day 12) is reported as 16.51 g. For the same molecule, the Average body weight ([1]; Day 14) was 17.26 g, the Average body weight ([1]; Day 16) was 17.91 g and the Average body weight ([1]; Day 18) was 18.13 g. For the same molecule, the Average body weight ([1]; Day 20) was 18.75 g, the Average body weight ([1]; Day 22) was 19.38 g and the Average body weight ([1]; Day 23) was 20.06 g. For the same molecule, the “average mice weight” value ([1]; Day 23) was 18.16 g, the Average tumor size ([2]; Day 9) was 162.03 mm^3 and the Average tumor size ([2]; Day 10) was 282.00 mm^3. It also gave an Average tumor size ([2]; Day 12) of 417.93 mm^3, an Average tumor size ([2]; Day 14) of 527.17 mm^3 and an Average tumor size ([2]; Day 16) of 718.27 mm^3. It also gave an Average tumor size ([2]; Day 18) of 828.07 mm^3, an Average tumor size ([2]; Day 20) of 1072.57 mm^3 and an Average tumor size ([2]; Day 22) of 1334.48 mm^3. The Average tumor size ([2]; Day 23) was 1558.87 mm^3, the “Tumor weight based TGI” value ([2]; Day 23) was 32.73% and the “Tumor weight, Average” value ([2]; Day 23) was 1.90 g. The “Tumor weight, Mouse no. 1” value ([2]; Day 23) was 2.85 g, the “Tumor weight, Mouse no. 2” value ([2]; Day 23) was 1.24 g and the “Tumor weight, Mouse no. 3” value ([2]; Day 23) was 2.76 g. The “Tumor weight, Mouse no. 4” value ([2]; Day 23) was 1.31 g, the “Tumor weight, Mouse no. 5” value ([2]; Day 23) was 1.97 g and the “Tumor weight, Mouse no. 6” value ([2]; Day 23) was 1.03 g. The “Tumor weight, Mouse no. 7” value ([2]; Day 23) was 3.12 g and the “Tumor weight, Mouse no. 8” value ([2]; Day 23) was 0.95 g.
In the case of `Nc1ccn([C@@H]2O[C@H](CO)[C@@H](O)C2(F)F)c(=O)n1` [GEM, gemcitabine, reference compound], the “TGI based on tumor sizes” value [3] is reported as 30.02%.
